Reference: patent publication US20210318292A1, “System and Method to Detect Small Molecules” (Sensorium Bio, Inc., priority 2020, published 2021)

Legend:
mOR256 = assay: Luminescent assay (cAMP-responsive luciferase reporter); format: cell-based; details: FIG. 6B; luciferase reporter read 5.5 hours after stimulation
MOR203-1 = details: cited from earlier work
MOR272-1 = details: cited from earlier work
OR2W1 = biological target: T1, OR2W1 (Homo sapiens, UniProt Q9Y3N9); details: cited from earlier work
T1 sequence (Q9Y3N9 1-320): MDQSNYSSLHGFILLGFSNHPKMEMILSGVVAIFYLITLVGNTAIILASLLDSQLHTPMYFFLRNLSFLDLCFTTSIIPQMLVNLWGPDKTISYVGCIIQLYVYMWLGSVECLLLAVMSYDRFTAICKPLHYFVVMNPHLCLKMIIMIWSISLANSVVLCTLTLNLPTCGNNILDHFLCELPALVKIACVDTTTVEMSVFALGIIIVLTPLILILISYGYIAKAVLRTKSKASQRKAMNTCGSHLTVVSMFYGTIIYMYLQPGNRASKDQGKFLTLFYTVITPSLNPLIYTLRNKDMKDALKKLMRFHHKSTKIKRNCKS

OR1A1 [1] = biological target: T2, OR1A1 (Homo sapiens, UniProt Q9P1Q5); details: cited from earlier work
T2 sequence (Q9P1Q5 1-309): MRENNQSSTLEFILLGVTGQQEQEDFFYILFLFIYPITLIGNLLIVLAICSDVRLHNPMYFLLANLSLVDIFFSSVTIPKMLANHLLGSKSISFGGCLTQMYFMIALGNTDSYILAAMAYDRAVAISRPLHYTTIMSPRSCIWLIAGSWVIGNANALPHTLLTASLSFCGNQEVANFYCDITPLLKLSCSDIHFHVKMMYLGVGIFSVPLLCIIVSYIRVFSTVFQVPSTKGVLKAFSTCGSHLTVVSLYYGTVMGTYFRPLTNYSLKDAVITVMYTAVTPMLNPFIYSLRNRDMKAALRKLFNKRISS

MOR271-1 = details: cited from earlier work
[2] = test system: exogenous ethylene benzene responsive GPCR; details: pure 5 μL hanging droplet on plate lid, no direct contact; transfected human embryonic kidney cells; within minutes
Experimental: Transfected human embryonic kidney cells were seeded at 60,000 cells per well in a poly-D-lysine coated 96-well plate. The exogenous ethylene benzene responsive GPCR and calcium reporter were present in the cytosol. Pure ethylene benzene was deposited as a hanging 5 μL droplet on the plate lid. Once the plate was placed over the well, there was no direct contact between the […] and the culture medium overlaid cells.

OR1A1 [3] = biological target: T2, OR1A1; assay: Luminescent assay (cAMP-responsive luciferase reporter); format: cell-based; details: FIG. 6A; luciferase reporter read 5.5 hours after stimulation
Experimental: Cells are seeded at a density of 15,000 cells per well in a solid white 96-well microplate and allowed to adhere prior to be transfected with different plasmids including but not limited to 10 ng GPCR-expressing plasmid and 10 ng cAMP-responsive luciferase reporter plasmid. The day following the transfection, the receptor-expressing cells are then stimulated with the ligands being tested. After a period to 5.5 hours following the stimulation, the cells are lysed and the luciferase reporter activity is measured following the manufacturer protocol. The amount of luciferase activity is proportional to the ligand-mediated activation level of the exogenous GPCR. FIG. 6 is the result of luminescent assay showing dose response curves of OR1A1 for propylbenzene in FIG. 6A and 1-hexanol in FIG. 6B. The cells produce light by expressing a luciferase enzyme as a reporter readout from a cAMP secondary messenger. The ligand-mediated GPCR activation leads to intracellular cAMP accumulation which triggers a luciferase activity increase which is measured.

| SMILES | binding to receptor MOR203-1 (MOR203-1) | binding to receptor MOR272-1 (MOR272-1) | binding to receptor OR2W1 (OR2W1) | binding to receptor OR1A1 (OR1A1 [1]) | further results |
| --- | --- | --- | --- | --- | --- |
| CCCCCCO [1-hexanol] |  |  |  |  | detection by mOR256, luminescent assay dose response curve (mOR256): detection |
| CCCCCCC(C)=O [2-octanone] | bind differentially | bind differentially | bind differentially | bind differentially |  |
| CCCCC(=O)CC [3-heptanone] | bind differentially | bind differentially | bind differentially | bind differentially | binding to receptor MOR271-1 (MOR271-1): bind differentially |
| C=C.c1ccccc1 [ethylene benzene] |  |  |  |  | fluorescence of the calcium reporter after gas phase exposure [2]: measurable fluorescence increase |
| CCCc1ccccc1 [propylbenzene] |  |  |  |  | detection by OR1A1, luminescent assay dose response curve (OR1A1 [3]): detection |
